{
  "source": "patent US20050124592A1",
  "about": "(priority 2002, published 2005)",
  "origin": "cited, not measured here",
  "key": {"progesterone receptor": {"target": "T1, progesterone receptor (Homo sapiens, UniProt P06401)", "T1 sequence (P06401 1-933)": "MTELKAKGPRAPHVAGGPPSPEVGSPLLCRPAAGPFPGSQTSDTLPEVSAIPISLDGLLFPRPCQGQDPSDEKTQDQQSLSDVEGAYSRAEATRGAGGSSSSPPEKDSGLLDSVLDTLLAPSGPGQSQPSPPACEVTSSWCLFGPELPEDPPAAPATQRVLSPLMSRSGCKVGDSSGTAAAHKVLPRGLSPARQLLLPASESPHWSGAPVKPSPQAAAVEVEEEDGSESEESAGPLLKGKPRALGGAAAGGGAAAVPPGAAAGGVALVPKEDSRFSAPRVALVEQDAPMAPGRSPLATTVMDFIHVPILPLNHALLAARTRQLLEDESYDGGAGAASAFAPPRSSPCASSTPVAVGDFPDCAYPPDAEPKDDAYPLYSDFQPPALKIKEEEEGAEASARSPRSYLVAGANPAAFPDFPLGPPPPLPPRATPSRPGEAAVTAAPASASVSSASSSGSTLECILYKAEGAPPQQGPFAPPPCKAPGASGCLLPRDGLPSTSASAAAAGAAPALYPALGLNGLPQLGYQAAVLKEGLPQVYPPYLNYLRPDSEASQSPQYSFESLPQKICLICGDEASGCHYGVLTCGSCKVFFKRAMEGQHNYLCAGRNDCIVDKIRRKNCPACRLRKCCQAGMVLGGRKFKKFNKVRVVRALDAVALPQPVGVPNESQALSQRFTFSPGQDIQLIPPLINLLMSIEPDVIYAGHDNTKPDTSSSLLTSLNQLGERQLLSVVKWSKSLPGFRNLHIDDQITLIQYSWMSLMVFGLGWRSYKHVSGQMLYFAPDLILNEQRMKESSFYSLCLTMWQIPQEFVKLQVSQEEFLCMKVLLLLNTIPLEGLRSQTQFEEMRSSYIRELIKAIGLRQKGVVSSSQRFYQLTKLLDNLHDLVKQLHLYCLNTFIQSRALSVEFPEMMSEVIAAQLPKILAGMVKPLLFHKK"}},
  "note": "Read-outs that look alike come from different tables or passages of the source.",
  "data": [
    {"smiles": "C#C[C@]1(O)CC[C@H]2[C@@H]3[C@H](C)CC4=C(CCC(=O)C4)[C@H]3CC[C@@]21C", "note": "[tibolone, (7α,17α)-17-hydroxy-7-methyl-19-nor-17-pregn-5(10)-en-20-yn-3-one]", "values": [
      {"measurement": "estrogenic activity", "setting": "estrogen receptor", "result": "hardly has an estrogenic activity"},
      {"measurement": "estrogenic activity", "setting": "estrogen receptor; listed as Tibolone", "result": "weak"},
      {"measurement": "progestagenic activity", "setting": "progesterone receptor", "result": "weak"}
    ]}
  ]
}
